{"source": "patent US10792360B1", "about": "“Compositions and methods for treating inflammatory bowel disease using CCR9 inhibitor and anti-TNF-alpha blocking antibodies” (ChemoCentryx, Inc., priority 2019, dated 2020)", "assay": "Compound 1 plasma concentration at trough (LC-MS) in piroxicam-accelerated MDR1a−/− colitis mice", "format": "in vivo, mouse", "conditions": "90 mg/kg SC BID in 10% Cremophor-EL; trough blood after 3rd and 21st day of dosing; FIG. 1", "method": "Compound 1 was dosed at 90 mg/kg in 10% Cremophor-EL, SC, BID. Vehicle was 10% Cremophor-EL and was administered SC, BID. Anti-mouse TNFα clone XT3.11 (Rat IgG1), 300 μg/mouse, QD/QOD; Isotype-matched control Clone HRPN (Rat IgG1), 300 μg/mouse, QD/QOD.\nBlood was taken at trough from all Compound 1-dosed mice, and plasma analyzed by Liquid Chromatography-Mass Spectroscopy to determine Compound 1 concentration. Trough blood was taken after the 3rd day (left panel) and 21st day (right panel) of dosing (FIG. 1)."}
{"smiles": "CC(C)(C)c1ccc(S(=O)(=O)Nc2ccc(Cl)cc2C(=O)c2cc[n+]([O-])cc2)cc1", "note": "[Compound 1]", "values": [{"measurement": "Compound 1 plasma concentration at trough", "value": "met or exceeded the minimal concentration established for 98% receptor coverage"}]}
